For assay [1], the target named is T1, ADAMTS-5 recombinant protein (Homo sapiens (Human), UniProt Q9UNA0). Briefly: In vitro ELISA of ADAMTS-5 activity (Aggrecan-IGD enzymatic assay). The following applies: aggrecan-IGD substrate, ARGSVIL-peptide ELISA, 37° C. 45 minutes. The class given is biochemical. Summed up:
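Recombinant ADAMTS-5 (0.3 nM diluted) was preincubated with compound 15 min at room temperature in 50 mM HEPES pH 7.5, 100 mM NaCl, 5 mM CaCl2, 0.1% CHAPS, 5% glycerol. Aggrecan-IGD substrate (T331-G458, His-tagged; 100 nM diluted) was then added for 45 min at 37 °C. ARGSVIL neoepitope was quantified by ELISA (A450) against a 4PL standard curve, and IC50 came from a four-parameter fit.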
For orientation: An ELISA detects its analyte on a solid surface through an enzyme-linked reagent.

Assay [2] has as its target T1, ADAMTS-5 recombinant protein. Briefly: In vitro fluorescence (FRET-peptide) enzymatic assay of ADAMTS-5 activity. The class given is biochemical. The settings on record: FRET peptide substrate 8 μM, 10 nM enzyme, 37° C. 3 hours. Summed up:
(§1)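 Enzyme (10 nM final) was preincubated with compound for 15 min at room temperature in 50 mM HEPES pH 7.5, 100 mM NaCl, 5 mM CaCl2, 0.1% CHAPS, 5% glycerol. FRET peptide was then added (15 μM for ADAMTS-4, 8 μM for ADAMTS-5), and fluorescence (Ex 490/Em 520 nm) was read after 3 h at 37° C. IC50 was derived from four-parameter fits.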

In assay [3] the target is ADAMTS-4 recombinant protein (Homo sapiens (Human), UniProt O75173). Briefly: In vitro fluorescence (FRET-peptide) enzymatic assay of ADAMTS-4 activity. The class given is biochemical. The following applies: FRET peptide substrate 15 μM, 10 nM enzyme, 37° C. 3 hours. Summed up:
as §1

The test system of assay [4] is mouse femoral head cartilage. Briefly: Mouse explant assay (IL-1α induced GAG release). Type of assay: cell-based. The settings on record: inhibition of GAG release, IL-1α 1 ng/ml, 72 hours; for inhibition at 2 µM: compound 2 μM; for inhibition at 20 µM: compound 20 μM. As for the experimental part: In this assay, fresh mouse femoral head cartilage was treated with IL-1α protein (Sigma-Aldrich, catalog #12778) in culture media, which induces the cartilage catabolism. Then, the GAGs attached to the cleaved aggrecan fragments (released in the media) and the GAGs attached to the intact aggrecan were measured by dimethylmethylene blue dye in the Glycosaminoglycans Assay Kit (Chondrex, catalog #6022).
Femoral head cartilage samples were isolated from mice (25 days old, male, C57BL/6, from Charles River Lab) and put into 2.0 ml tubes filled-up with media (DMEM, 10% FBS, 4 mM Glutamine, penicillin-streptomycin, 20 mM HEPES). Two hundred μl of media without FBS was added to each well of a 48-well plate, and one piece of cartilage was transferred to a well in the plate. Then the media was aspirated, and compounds and IL-1α protein were added to the plate in a total volume of 400 μl of fresh media without FBS. The final concentration of IL-1α was 1 ng/ml. The plate was incubated at 37° C. for 72 hours in a humidified incubator with 5% CO2 supply.
The supernatant was transferred to a 1.5 ml tube and kept at −20° C. Each cartilage sample was transferred to another 1.5 ml tube containing 400 μl of freshly made papain solution. The papain solution contained 125 μg/ml papain (Sigma-Aldrich, catalog #P3125), 0.1 M sodium acetate (Sigma-Aldrich, catalog #S7899), pH 5.5 and 5 mM EDTA and 5 mM L-cysteine-HCl (Sigma-Aldrich, catalog #C7880). The cartilage samples were kept rocking in a 60° C. water bath for 24 hours. The lysates were vortexed for 10 seconds and spinned at 10,000 rpm for 2 minutes.
Both the supernatant and the lysate samples were diluted with PBS and mixed with 100 μl of dye from the Glycosaminoglycans Assay Kit. The optical density from each well was determined with a TECAN plate reader set to a wavelength of 525 nm.
The concentrations of GAGs in the supernatant and lysates were determined based on the standard curve with a dose range of chondroitin sulfate provided in the kit. The percentage of GAG release was calculated as the following
The test compound effect was expressed as the percent of inhibition using the following formula: […]

T1 sequence (Q9UNA0 262-622): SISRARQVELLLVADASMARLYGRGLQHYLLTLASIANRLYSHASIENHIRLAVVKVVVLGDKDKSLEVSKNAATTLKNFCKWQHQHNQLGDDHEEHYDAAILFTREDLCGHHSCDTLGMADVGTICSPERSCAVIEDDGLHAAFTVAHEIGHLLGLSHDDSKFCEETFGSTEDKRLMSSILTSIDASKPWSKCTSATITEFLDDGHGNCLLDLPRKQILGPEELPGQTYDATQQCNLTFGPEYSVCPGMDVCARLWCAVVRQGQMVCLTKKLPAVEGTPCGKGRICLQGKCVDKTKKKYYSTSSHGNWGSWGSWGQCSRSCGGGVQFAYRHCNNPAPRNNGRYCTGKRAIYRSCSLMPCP
Sequence of ADAMTS-4 recombinant protein (O75173 213-685): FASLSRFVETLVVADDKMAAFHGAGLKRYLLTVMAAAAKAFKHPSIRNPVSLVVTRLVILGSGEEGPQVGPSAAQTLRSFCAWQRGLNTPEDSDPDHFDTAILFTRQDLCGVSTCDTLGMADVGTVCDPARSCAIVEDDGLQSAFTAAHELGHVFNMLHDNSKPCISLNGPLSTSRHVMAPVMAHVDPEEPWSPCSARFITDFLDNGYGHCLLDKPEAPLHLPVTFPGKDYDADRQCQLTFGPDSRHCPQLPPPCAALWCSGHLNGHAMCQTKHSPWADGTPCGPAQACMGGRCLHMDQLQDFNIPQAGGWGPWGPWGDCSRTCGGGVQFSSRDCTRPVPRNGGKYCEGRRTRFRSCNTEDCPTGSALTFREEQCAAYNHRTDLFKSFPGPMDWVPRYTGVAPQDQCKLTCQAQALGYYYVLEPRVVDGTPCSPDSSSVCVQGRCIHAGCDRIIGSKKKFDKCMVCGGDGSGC

A word on the IC50: it is the concentration that inhibits the measured activity by half. As a reminder, the inhibition is the drop in the measured response relative to a control, in per cent. Consider `O=C1NC(=O)[C@](CCC(=O)N2CCc3ccc(F)cc3CC2)(C2CC2)N1` [Example 44, (S)-5-cyclopropyl-5-(3-(7-fluoro-1,2,4,5-tetrahydro-3H-benzo[d]azepin-3-yl)-3-oxopropyl)imidazolidine-2,4-dione], for which the IC50 in assay [1] amounted to 51 nM; in assay [2], 37 nM; in assay [3] it was 15 nM. In assay [4], 2 µM produced 13% inhibition. Besides, in assay [4], the inhibition at 20 µM worked out at 70%.

Regarding `O=C1NC(=O)[C@](CCC(=O)N2CCc3ccc(C(F)(F)F)cc3CC2)(C2CC2)N1` [Example 45, (S)-5-cyclopropyl-5-(3-oxo-3-(7-(trifluoromethyl)-1,2,4,5-tetrahydro-3H-benzo[d]azepin-3-yl)propyl)imidazolidine-2,4-dione], the 50% inhibitory concentration (IC50) in assay [1] was determined as 25 nM; in assay [2] it was 12 nM; in assay [3], 19 nM. The same compound showed an inhibition at 2 µM in assay [4] of 45%. In assay [4], this compound had an inhibition at 20 µM of 96%.

In the case of `O=C1NC(=O)[C@](CCC(=O)N2Cc3ccc(C(F)F)cc3C2)(C2CC2)N1` [Example 52, (S)-5-cyclopropyl-5-(3-(5-(difluoromethyl)isoindolin-2-yl)-3-oxopropyl)imidazolidine-2,4-dione], the IC50 in assay [1] stood at 48 nM; in assay [2], 66 nM; in assay [3], 30 nM. For the same compound, testing at 2 µM in assay [4] gave an inhibition of 10%. The compound further displayed an inhibition at 20 µM in assay [4] of 48%.

For the compound `O=C1NC(=O)[C@](CCC(=O)N2Cc3cc(Br)c(C(F)(F)F)cc3C2)(C2CC2)N1` [Example 59, (S)-5-(3-(5-bromo-6-(trifluoromethyl)isoindolin-2-yl)-3-oxopropyl)-5-cyclopropylimidazolidine-2,4-dione], the half-maximal inhibitory concentration (IC50) in assay [1] was determined as 46 nM; in assay [2], 46 nM; in assay [3] it was 82 nM. Besides, testing at 2 µM in assay [4] gave an inhibition of 16%. The same compound yielded an inhibition at 20 µM in assay [4] of 66%.

`C[C@@H]1c2cc(Cl)c(Cl)cc2CN1C(=O)CC[C@@]1(C2CC2)NC(=O)NC1=O` [Example 66-2, (S)-5-cyclopropyl-5-(3-((R)-5,6-dichloro-1-methylisoindolin-2-yl)-3-oxopropyl)imidazolidine-2,4-dione]: the IC50 was 19 nM in assay [1], 10 nM in assay [2] and 12 nM in assay [3]. Also, the inhibition at 2 µM in assay [4] was determined as 23%. The compound also showed an inhibition at 20 µM in assay [4] of 87%.

The values are drawn from patent US20240299360A1, “ADAMTS INHIBITORS, PREPARATION METHODS AND MEDICINAL USES THEREOF” (Jiangsu Hengrui Pharmaceuticals Co., Ltd., priority 2020, published 2024).
